From US8802661B2, “C-28 amides of modified C-3 betulinic acid derivatives as HIV maturation inhibitors” (priority 2010, dated 2014)
pEC50: −log10 of the molar value. Like-named read-outs stand apart in the source and are kept apart here.

Tested on: recombinant NL4-3 virus (Renilla luciferase in nef, Gag P373S)
Test: HIV Cell Culture Assay (luciferase reporter virus in MT-2 cells)
Type: cell-based
Outline: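 Virus from 293T transfection, titered in MT-2 by luciferase. MT-2 (RPMI, 10% HI-FBS) infected ± inhibitor serial dilutions, 4-5 d. Readout: Dual Luciferase premix (lysis:reagent:Stop & Glo 2:1:1), immediate luminescence.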

Structure (SMILES) | pEC50 (NL43) | pEC50 (NL43, read-out: EC50 Group)
C=C(C)[C@@H]1CC[C@]2(C(=O)NCc3cccs3)CC[C@]3(C)[C@H](CC[C@@H]4[C@@]5(C)CC=C(c6ccc(C(=O)O)cc6)C(C)(C)[C@@H]5CC[C@]43C)[C@@H]12 [Example 42, 4-((1R,3aS,5aR,5bR,7aR,11aS,11bR,13aR,13bR)-5a,5b,8,8,11a-pentamethyl-1-(prop-1-en-2-yl)-3a-(thiophen-2-ylmethylcarbamoyl)-2,3,3a,4,5,5a,5b,6,7,7a,8,11,11a,11b,12,13,13a,13b-octadecahydro-1H-cyclopenta[a]chrysen-9-yl)benzoic acid] | 6.92 | 
C=C(C)[C@@H]1CC[C@]2(C(=O)NCc3ncc[nH]3)CC[C@]3(C)[C@H](CC[C@@H]4[C@@]5(C)CC=C(c6ccc(C(=O)O)cc6)C(C)(C)[C@@H]5CC[C@]43C)[C@@H]12 [Example 43] |  | > 7.00
C=C(C)[C@@H]1CC[C@]2(C(=O)NC(C)c3nnc(C)[nH]3)CC[C@]3(C)[C@H](CC[C@@H]4[C@@]5(C)CC=C(c6ccc(C(=O)O)cc6)C(C)(C)[C@@H]5CC[C@]43C)[C@@H]12 (stereo partly drawn) [Example 44, 4-((1R,3aS,5aR,5bR,7aR,11aS,11bR,13aR,13bR)-5a,5b,8,8,11a-pentamethyl-3a-(1-(5-methyl-4H-1,2,4-triazol-3-yl)ethylcarbamoyl)-1-(prop-1-en-2-yl)-2,3,3a,4,5,5a,5b,6,7,7a,8,11,11a,11b,12,13,13a,13b-octadecahydro-1H-cyclopenta[a]chrysen-9-yl)benzoic acid] |  | > 7.00
C=C(C)[C@@H]1CC[C@]2(C(=O)NCc3nc4ccccc4s3)CC[C@]3(C)[C@H](CC[C@@H]4[C@@]5(C)CC=C(c6ccc(C(=O)O)cc6)C(C)(C)[C@@H]5CC[C@]43C)[C@@H]12 [Example 45, 4-((1R,3aS,5aR,5bR,7aR,11aS,11bR,13aR,13bR)-3a-(benzo[d]thiazol-2-ylmethylcarbamoyl)-5a,5b,8,8,11a-pentamethyl-1-(prop-1-en-2-yl)-2,3,3a,4,5,5a,5b,6,7,7a,8,11,11a,11b,12,13,13a,13b-octadecahydro-1H-cyclopenta[a]chrysen-9-yl)benzoic acid] |  | > 7.00
C=C(C)[C@@H]1CC[C@]2(C(=O)NCCN3CCCC3=O)CC[C@]3(C)[C@H](CC[C@@H]4[C@@]5(C)CC=C(c6ccc(C(=O)O)cc6)C(C)(C)[C@@H]5CC[C@]43C)[C@@H]12 [Example 46, 4-((1R,3aS,5aR,5bR,7aR,11aS,11bR,13aR,13bR)-5a,5b,8,8,11a-pentamethyl-3a-(2-(2-oxopyrrolidin-1-yl)ethylcarbamoyl)-1-(prop-1-en-2-yl)-2,3,3a,4,5,5a,5b,6,7,7a,8,11,11a,11b,12,13,13a,13b-octadecahydro-1H-cyclopenta[a]chrysen-9-yl)benzoic acid] |  | > 7.00
C=C(C)[C@@H]1CC[C@]2(C(=O)Nc3nc(C(=O)O)c(C)s3)CC[C@]3(C)[C@H](CC[C@@H]4[C@@]5(C)CC=C(c6ccc(C(=O)O)cc6)C(C)(C)[C@@H]5CC[C@]43C)[C@@H]12 [Example 47, 2-((1R,3aS,5aR,5bR,7aR,11aS,11bR,13aR,13bR)-9-(4-carboxyphenyl)-5a,5b,8,8,11a-pentamethyl-1-(prop-1-en-2-yl)-2,3,3a,4,5,5a,5b,6,7,7a,8,11,11a,11b,12,13,13a,13b-octadecahydro-1H-cyclopenta[a]chrysene-3a-carboxamido)-5-methylthiazole-4-carboxylic acid] | 8.06 | 
C=C(C)[C@@H]1CC[C@]2(C(=O)Nc3ncc(C)s3)CC[C@]3(C)[C@H](CC[C@@H]4[C@@]5(C)CC=C(c6ccc(C(=O)O)cc6)C(C)(C)[C@@H]5CC[C@]43C)[C@@H]12 [Example 48, 4-((1R,3aS,5aR,5bR,7aR,11aS,11bR,13aR,13bR)-5a,5b,8,8,11a-pentamethyl-3a-(5-methylthiazol-2-ylcarbamoyl)-1-(prop-1-en-2-yl)-2,3,3a,4,5,5a,5b,6,7,7a,8,11,11a,11b,12,13,13a,13b-octadecahydro-1H-cyclopenta[a]chrysen-9-yl)benzoic acid] |  | > 7.00
C=C(C)[C@@H]1CC[C@]2(C(=O)NCCC(=O)N3CCC(C(=O)O)CC3)CC[C@]3(C)[C@H](CC[C@@H]4[C@@]5(C)CC=C(c6ccc(C(=O)O)cc6)C(C)(C)[C@@H]5CC[C@]43C)[C@@H]12 [Example 49, 1-(3-((1R,3aS,5aR,5bR,7aR,11aS,11bR,13aR,13bR)-9-(4-carboxyphenyl)-5a,5b,8,8,11a-pentamethyl-1-(prop-1-en-2-yl)-2,3,3a,4,5,5a,5b,6,7,7a,8,11,11a,11b,12,13,13a,13b-octadecahydro-1H-cyclopenta[a]chrysene-3a-carboxamido)propanoyl)piperidine-4-carboxylic acid] |  | > 7.00
C=C(C)[C@@H]1CC[C@]2(C(=O)Nc3ncc(C(=O)O)s3)CC[C@]3(C)[C@H](CC[C@@H]4[C@@]5(C)CC=C(c6ccc(C(=O)O)cc6)C(C)(C)[C@@H]5CC[C@]43C)[C@@H]12 [Example 50, 2-((1R,3aS,5aR,5bR,7aR,11aS,11bR,13aR,13bR)-9-(4-carboxyphenyl)-5a,5b,8,8,11a-pentamethyl-1-(prop-1-en-2-yl)-2,3,3a,4,5,5a,5b,6,7,7a,8,11,11a,11b,12,13,13a,13b-octadecahydro-1H-cyclopenta[a]chrysene-3a-carboxamido)thiazole-5-carboxylic acid] |  | > 7.00
C=C(C)[C@@H]1CC[C@]2(C(=O)Nc3nncs3)CC[C@]3(C)[C@H](CC[C@@H]4[C@@]5(C)CC=C(c6ccc(C(=O)O)cc6)C(C)(C)[C@@H]5CC[C@]43C)[C@@H]12 [Example 51, 4-((1R,3aS,5aR,5bR,7aR,11aS,11bR,13aR,13bR)-3a-(1,3,4-thiadiazol-2-ylcarbamoyl)-5a,5b,8,8,11a-pentamethyl-1-(prop-1-en-2-yl)-2,3,3a,4,5,5a,5b,6,7,7a,8,11,11a,11b,12,13,13a,13b-octadecahydro-1H-cyclopenta[a]chrysen-9-yl)benzoic acid] |  | > 7.00
C=C(C)[C@@H]1CC[C@]2(C(=O)NCCCN(C)C(C)=O)CC[C@]3(C)[C@H](CC[C@@H]4[C@@]5(C)CC=C(c6ccc(C(=O)O)cc6)C(C)(C)[C@@H]5CC[C@]43C)[C@@H]12 [Example 52, 4-((1R,3aS,5aR,5bR,7aR,11aS,11bR,13aR,13bR)-5a,5b,8,8,11a-pentamethyl-3a-(3-(N-methylacetamido)propylcarbamoyl)-1-(prop-1-en-2-yl)-2,3,3a,4,5,5a,5b,6,7,7a,8,11,11a,11b,12,13,13a,13b-octadecahydro-1H-cyclopenta[a]chrysen-9-yl)benzoic acid] |  | > 7.00
C=C(C)[C@@H]1CC[C@]2(C(=O)NCCCNC(C)=O)CC[C@]3(C)[C@H](CC[C@@H]4[C@@]5(C)CC=C(c6ccc(C(=O)O)cc6)C(C)(C)[C@@H]5CC[C@]43C)[C@@H]12 [Example 53, 4-((1R,3aS,5aR,5bR,7aR,11aS,11bR,13aR,13bR)-3a-(3-acetamidopropylcarbamoyl)-5a,5b,8,8,11a-pentamethyl-1-(prop-1-en-2-yl)-2,3,3a,4,5,5a,5b,6,7,7a,8,11,11a,11b,12,13,13a,13b-octadecahydro-1H-cyclopenta[a]chrysen-9-yl)benzoic acid] |  | > 7.00
CC(C)[C@@H]1CC[C@]2(C(=O)NCCc3ccccn3)CC[C@]3(C)[C@H](CC[C@@H]4[C@@]5(C)CC[C@H](c6ccc(C(=O)O)cc6)C(C)(C)[C@@H]5CC[C@]43C)[C@@H]12 [Example 54, 4-((1S,3aS,5aR,5bR,7aS,9S,11aS,11bR,13aR,13bR)-1-isopropyl-5a,5b,8,8,11a-pentamethyl-3a-(2-(pyridin-2-yl)ethylcarbamoyl)icosahydro-1H-cyclopenta[a]chrysen-9-yl)benzoic acid] |  | > 7.00
CC(C)[C@@H]1CC[C@]2(C(=O)NCCN(C)C)CC[C@]3(C)[C@H](CC[C@@H]4[C@@]5(C)CC[C@H](c6ccc(C(=O)O)cc6)C(C)(C)[C@@H]5CC[C@]43C)[C@@H]12 [Example 55, 4-((1S,3aS,5aR,5bR,7aS,9S,11aS,11bR,13aR,13bR)-3a-(2-(dimethylamino)ethylcarbamoyl)-1-isopropyl-5a,5b,8,8,11a-pentamethylicosahydro-1H-cyclopenta[a]chrysen-9-yl)benzoic acid] |  | > 7.00
C=C(C)[C@@H]1CC[C@]2(C(=O)N[C@H](C(=O)O)c3ccccc3)CC[C@]3(C)[C@H](CC[C@@H]4[C@@]5(C)CC=C(c6ccc(C(=O)O)cc6)C(C)(C)[C@@H]5CC[C@]43C)[C@@H]12 [Example 56, 4-((1R,3aS,5aR,5bR,7aR,11aS,11bR,13aR,13bR)-3a-((S)-carboxy(phenyl)methylcarbamoyl)-5a,5b,8,8,11a-pentamethyl-1-(prop-1-en-2-yl)-2,3,3a,4,5,5a,5b,6,7,7a,8,11,11a,11b,12,13,13a,13b-octadecahydro-1H-cyclopenta[a]chrysen-9-yl)benzoic acid] |  | > 7.00
C=C(C)[C@@H]1CC[C@]2(C(=O)N[C@@H](C)C(=O)O)CC[C@]3(C)[C@H](CC[C@@H]4[C@@]5(C)CC=C(c6ccc(C(=O)O)cc6)C(C)(C)[C@@H]5CC[C@]43C)[C@@H]12 [Example 57, 4-((1R,3aS,5aR,5bR,7aR,11aS,11bR,13aR,13bR)-3a-((S)-1-carboxyethylcarbamoyl)-5a,5b,8,8,11a-pentamethyl-1-(prop-1-en-2-yl)-2,3,3a,4,5,5a,5b,6,7,7a,8,11,11a,11b,12,13,13a,13b-octadecahydro-1H-cyclopenta[a]chrysen-9-yl)benzoic acid] | 6.15 | 
C=C(C)[C@@H]1CC[C@]2(C(=O)N[C@@H](Cc3ccccc3)C(=O)O)CC[C@]3(C)[C@H](CC[C@@H]4[C@@]5(C)CC=C(c6ccc(C(=O)O)cc6)C(C)(C)[C@@H]5CC[C@]43C)[C@@H]12 [Example 58, 4-((1R,3aS,5aR,5bR,7aR,11aS,11bR,13aR,13bR)-3a-((S)-1-carboxy-2-phenylethylcarbamoyl)-5a,5b,8,8,11a-pentamethyl-1-(prop-1-en-2-yl)-2,3,3a,4,5,5a,5b,6,7,7a,8,11,11a,11b,12,13,13a,13b-octadecahydro-1H-cyclopenta[a]chrysen-9-yl)benzoic acid] |  | > 7.00
